Patent US7385026B1, “Modified ghrelin polypeptides” (priority 1999, dated 2008)
Square brackets hold non-standard residues; d marks the D form. Peptide text beside a SMILES is read from it. * marks the point of attachment. Octanoyl = CCCCCCCC(=O)*; Aib = CC(C)(N)C(=O)O; Octyl = CCCCCCCC*

Biological target: T1, rat GHS-receptor (GHR-R) (Rattus norvegicus, UniProt O08725)
T1 construct: A full-length cDNA for rat GHR-R was obtained by RT-PCR; expressed in transfected cells
Experiment: Ca-releasing activity (increase in intracellular calcium) in CHO-GHSR62 cells, FLIPR
Assay type: cell-based
Settings: not given
Source text: To assay an increase in the intracellular calcium ion concentration (Ca-releasing activity) occurring upon binding of a GH secretagogue (GHS) to GHS-receptor (GHR-R), a cell strain expressing rat GHR-R was created in the following manner. A full-length cDNA for rat GHR-R was obtained by RT-PCR (reverse transcriptase-polymerase chain reaction) where a cDNA derived from rat brain was used as template. From the nucleotide sequence of known rat GHR-R [K. K. Mckee, et al, Molecular Endocrinology 11, 415-423 (1997)], sense and antisense primers consisting of the following nucleotide sequences were synthesized.
The amplified cDNA was ligated to vector pcDNAIII (Invitrogen) to construct expression vector GHSR-pcDNAIII. CHO cells were transformed via the expression vector, and the transformed cells stably expressing GHR-R were selected in a medium containing 1 μg/ml G418. […] A change in the intracellular calcium ion concentration (Ca-releasing activity) was measured by an FLIPR system (Molecular Device). Before this measurement, 4×10^4 CHO-GHSR62 cells were put to a 96-well microplate with black wall (Corning Co., Ltd) and cultured for 12 to 15 hours. Then, the cells were incubated with 4 μM fluorescent Fluo4 (Molecular Probe Co., Ltd) for 1 hour and washed four times with Hank's BSS (Hank's Balanced Salt Solution) containing 20 mM Hepes ([N-2-hydroxyethyl]-piperazine-N-[2-ethanesulfonic acid]) and 2.5 mM probenecid, and the Ca-releasing activity was assayed by adding a sample and measuring a change in the fluorescence.
Peptide fragments obtained by partially digested the rat- and human-derived ghrelins by various proteases, or chemically synthesized peptides, were examined for their Ca releasing activity in order to determine a core amino acid sequence and the optimum chain length of a modifying fatty acid necessary for Ca-releasing activity.
The Ca-increasing activities of the ghrelin derivative peptide-type compounds synthesized in Example 10 and the natural ghrelin peptide were measured in the same manner as in Example 1.
In this examination, the intracellular Ca-releasing activity in CHO cells expressing rat GSH receptor was used as the indicator.

T1 sequence (O08725 whole entry): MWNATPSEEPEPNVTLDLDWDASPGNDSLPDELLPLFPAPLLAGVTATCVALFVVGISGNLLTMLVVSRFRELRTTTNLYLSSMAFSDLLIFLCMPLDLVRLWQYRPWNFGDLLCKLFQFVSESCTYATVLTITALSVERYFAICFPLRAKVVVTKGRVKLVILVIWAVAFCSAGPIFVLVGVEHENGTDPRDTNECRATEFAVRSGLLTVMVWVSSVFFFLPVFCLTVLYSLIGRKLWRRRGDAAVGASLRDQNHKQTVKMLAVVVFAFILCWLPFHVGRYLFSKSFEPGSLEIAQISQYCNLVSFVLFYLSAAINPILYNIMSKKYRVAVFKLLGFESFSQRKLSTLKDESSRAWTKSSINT

Compound	Ca-releasing activity of ghrelin (1-4) after amidation relative to before amidation
CCCCCCCC(=O)OC[C@H](NC(=O)[C@H](CO)NC(=O)CN)C(=O)N[C@@H](Cc1ccccc1)C(N)=O [Compound 33-2, Ghrelin (1-4)-amide] (H-GSS(Octanoyl)F-NH2)	about 3 times

Same assay, conditions: CHO-GHSR62 cells

Compound	Ca-releasing activity (in words)
GHRH: GH releasing hormone, expressed as GRF in FIG. 3a [reference compound]	did not exhibit the Ca-releasing activity

Same assay, conditions: CHO-GHSR62 cells (CHO cells expressing rat GHS receptor), FLIPR; read-out: Ca-releasing activity EC50

Compound	EC50 [nM]
CCCCCCCCOC[C@@H](NC(=O)[C@H](CO)NC(=O)CN)C(=O)N[C@H](Cc1ccccc1)C(=O)N[C@@H](CC(C)C)C(=O)N[C@@H](CO)C(=O)N1CCC[C@H]1C(N)=O [Compound 53, [^DSer^3(Octyl), ^DPhe^4]-Ghrelin (1-7)-amide]	> 10000
CCCC[C@H](NC(=O)[C@H](CO)NC(=O)CN)C(=O)N[C@@H](Cc1ccccc1)C(=O)N[C@@H](CC(C)C)C(=O)N[C@@H](CO)C(=O)N1CCC[C@H]1C(=O)N[C@@H](CCC(=O)O)C(=O)N[C@@H](Cc1c[nH]cn1)C(=O)N[C@@H](CCC(N)=O)C(=O)N[C@@H](CCCNC(=N)N)C(=O)N[C@H](C(=O)N[C@@H](CCC(N)=O)C(=O)N[C@@H](CCC(N)=O)C(=O)N[C@@H](CCCNC(=N)N)C(=O)N[C@@H](CCCCN)C(=O)N[C@@H](CCC(=O)O)C(=O)N[C@@H](CO)C(=O)N[C@@H](CCCCN)C(=O)N[C@@H](CCCCN)C(=O)N1CCC[C@H]1C(=O)N1CCC[C@H]1C(=O)N[C@@H](C)C(=O)N[C@@H](CCCCN)C(=O)N[C@@H](CC(C)C)C(=O)N[C@@H](CCC(N)=O)C(=O)N1CCC[C@H]1C(=O)N[C@@H](CCCNC(=N)N)C(=O)O)C(C)C [Compound 73, [Nle^3]-hGhrelin]	2800
CCCCCCCCOC[C@H](NC(=O)CCCCN)C(=O)N[C@@H](Cc1ccccc1)C(=O)N[C@@H](CC(C)C)C(N)=O [Compound 81, [N-Aminopentanoyl, Ser^3(Octyl)]-Ghrelin (3-5)-amide]	11
CCCCCCCC(=O)OC[C@H](NC(=O)[C@H](CO)NC(=O)CN)C(=O)N[C@@H](Cc1ccccc1)C(=O)N[C@@H](CC(C)C)C(=O)N[C@@H](CO)C(=O)N1CCC[C@H]1C(N)=O [Compound 29, Ghrelin (1-7)-amide]	2.6
CCCCCCCC(=O)OC[C@H](NC(=O)[C@H](CO)NC(=O)CN)C(=O)N[C@@H](Cc1ccccc1)C(=O)O [Compound 33-1, Ghrelin (1-4)] (H-GSS(Octanoyl)F-OH)	480
CCCCCCCC(=O)OC[C@H](NC(=O)[C@H](CO)NC(=O)CN)C(=O)N[C@@H](Cc1ccccc1)C(=O)N[C@@H](CC(C)C)C(=O)N[C@@H](CO)C(=O)N[C@@H](CCCCN)C(N)=O [Compound 75, [Lys^7]-Ghrelin (1-7)-amide] (H-GSS(Octanoyl)FLSK-NH2)	11
CCCCCCCC(=O)OC[C@H](NC(=O)[C@H](CO)NC(=O)CNC(=O)[C@@H](N)Cc1ccc(O)cc1)C(=O)N[C@@H](Cc1ccccc1)C(=O)N[C@@H](CC(C)C)C(=O)N[C@@H](CO)C(=O)N1CCC[C@H]1C(=O)N[C@@H](CCC(=O)O)C(=O)N[C@@H](Cc1c[nH]cn1)C(=O)N[C@@H](CCC(N)=O)C(=O)N[C@@H](CCCCN)C(=O)N[C@@H](C)C(=O)N[C@@H](CCC(N)=O)C(=O)N[C@@H](CCC(N)=O)C(=O)N[C@@H](CCCNC(=N)N)C(=O)N[C@@H](CCCCN)C(=O)N[C@@H](CCC(=O)O)C(=O)N[C@@H](CO)C(=O)N[C@@H](CCCCN)C(=O)N[C@@H](CCCCN)C(=O)N1CCC[C@H]1C(=O)N1CCC[C@H]1C(=O)N[C@@H](C)C(=O)N[C@@H](CCCCN)C(=O)N[C@@H](CC(C)C)C(=O)N[C@@H](CCC(N)=O)C(=O)N1CCC[C@H]1C(=O)N[C@@H](CCCNC(=N)N)C(=O)O [Compound 42, [N-Tyr]-rGhrelin]	120
CCCCCCCSSC[C@H](NC(=O)[C@H](CO)NC(=O)CN)C(=O)N[C@@H](Cc1ccccc1)C(=O)N[C@@H](CC(C)C)C(=O)N[C@@H](CO)C(=O)N1CCC[C@H]1C(=O)N[C@@H](CCC(=O)O)C(=O)N[C@@H](Cc1c[nH]cn1)C(=O)N[C@@H](CCC(N)=O)C(=O)N[C@@H](CCCNC(=N)N)C(=O)N[C@H](C(=O)N[C@@H](CCC(N)=O)C(=O)N[C@@H](CCC(N)=O)C(=O)N[C@@H](CCCNC(=N)N)C(=O)N[C@@H](CCCCN)C(=O)N[C@@H](CCC(=O)O)C(=O)N[C@@H](CO)C(=O)N[C@@H](CCCCN)C(=O)N[C@@H](CCCCN)C(=O)N1CCC[C@H]1C(=O)N1CCC[C@H]1C(=O)N[C@@H](C)C(=O)N[C@@H](CCCCN)C(=O)N[C@@H](CC(C)C)C(=O)N[C@@H](CCC(N)=O)C(=O)N1CCC[C@H]1C(=O)N[C@@H](CCCNC(=N)N)C(=O)O)C(C)C [Compound 57]	1.4
CCCCCCCCOC[C@H](NC(=O)CCCCN)C(=O)N[C@@H](Cc1ccccc1)C(=O)N[C@@H](CC(C)C)C(=O)NCc1ccccc1 [Compound 84, [N-Aminopentanoyl, Ser^3(Octyl)]-Ghrelin (3-5)-benzylamide]	98
CC(C)C[C@H](NC(=O)[C@H](CCCCN)NC(=O)[C@H](C)NC(=O)[C@@H]1CCCN1C(=O)[C@@H]1CCCN1C(=O)[C@H](CCCCN)NC(=O)[C@H](CCCCN)NC(=O)[C@H](CO)NC(=O)[C@H](CCC(=O)O)NC(=O)[C@H](CCCCN)NC(=O)[C@H](CCCNC(=N)N)NC(=O)[C@H](CCC(N)=O)NC(=O)[C@H](CCC(N)=O)NC(=O)[C@@H](NC(=O)[C@H](CCCNC(=N)N)NC(=O)[C@H](CCC(N)=O)NC(=O)[C@H](Cc1c[nH]cn1)NC(=O)[C@H](CCC(=O)O)NC(=O)[C@@H]1CCCN1C(=O)[C@H](CO)NC(=O)[C@H](CC(C)C)NC(=O)[C@H](Cc1ccccc1)NC(=O)[C@H](CC1CCCCC1)NC(=O)[C@H](CO)NC(=O)CN)C(C)C)C(=O)N[C@@H](CCC(N)=O)C(=O)N1CCC[C@H]1C(=O)N[C@@H](CCCNC(=N)N)C(=O)O [Compound 64, [Cha^3]-hGhrelin]	19
CCCCCCCCSC[C@H](NC(=O)[C@H](CO)NC(=O)CN)C(=O)N[C@@H](Cc1ccccc1)C(=O)N[C@@H](CC(C)C)C(=O)N[C@@H](CO)C(=O)N1CCC[C@H]1C(N)=O [Compound 48, [Cys^3(Octyl)]-Ghrelin (1-7)-amide] (H-GSC(Octyl)FLSP-NH2)	7.4
CCCCCCCCOC[C@H](NC(=O)CCCCN)C(=O)N[C@@H](Cc1ccccc1)C(=O)N[C@@H](CCCCN)C(N)=O [Compound 76, [N-Aminopentanoyl, Ser^3(Octyl), Lys^5]-Ghrelin (3-5)-amide]	12
CCCCCCCC(=O)OC[C@H](NC(=O)[C@H](CO)NC(=O)CN)C(=O)N[C@@H](Cc1ccccc1)C(=O)N[C@@H](CC(C)C)C(=O)N[C@@H](CO)C(=O)N1CCC[C@H]1C(=O)N[C@@H](CCCCN)C(N)=O [Compound 35, [Lys^8]-Ghrelin (1-8)-amide] (H-GSS(Octanoyl)FLSPK-NH2)	1.1
CCCCCCCC(=O)OC[C@H](NC(=O)[C@H](CO)NC(=O)CN)C(=O)N[C@@H](Cc1ccccc1)C(N)=O [Compound 33-2, Ghrelin (1-4)-amide] (H-GSS(Octanoyl)F-NH2)	160
CCCCCCCCOC[C@H](NC(=O)[C@H](Cc1c[nH]cn1)NC(=O)C(C)(C)N)C(=O)N[C@@H](Cc1ccccc1)C(=O)N[C@@H](CCCCN)C(N)=O [Compound 78, [Aib^1, His^2, Ser^3(Octyl), Lys^5]-Ghrelin (1-5)-amide] (H-[Aib]HS(Octyl)FK-NH2)	34

Same assay, conditions: Ca-releasing activity (EC50, nM), Table 3, Example 9: protease fragments or synthetic peptides; CHO-GHSR62 cells

Compound	EC50 [nM]
CCCCCCCC(=O)OC[C@H](NC(=O)[C@H](CO)NC(=O)CN)C(=O)N[C@@H](Cc1ccccc1)C(=O)N[C@@H](CC(C)C)C(=O)N[C@@H](CO)C(=O)N1CCC[C@H]1C(=O)N[C@@H](CCC(=O)O)C(=O)N[C@@H](Cc1cnc[nH]1)C(=O)N[C@@H](CCC(N)=O)C(=O)N[C@@H](CCCNC(=N)N)C(=O)N[C@H](C(=O)N[C@@H](CCC(N)=O)C(=O)N[C@@H](CCC(N)=O)C(=O)N[C@@H](CCCNC(=N)N)C(=O)N[C@@H](CCCCN)C(=O)N[C@@H](CCC(=O)O)C(=O)N[C@@H](CO)C(=O)N[C@@H](CCCCN)C(=O)N[C@@H](CCCCN)C(=O)N1CCC[C@H]1C(=O)N1CCC[C@H]1C(=O)N[C@@H](C)C(=O)N[C@@H](CCCCN)C(=O)N[C@@H](CC(C)C)C(=O)N[C@@H](CCC(N)=O)C(=O)N1CCC[C@H]1C(=O)N[C@@H](CCCNC(=N)N)C(=O)O)C(C)C [Compound 1, human Ghrelin]	2.6

Same assay, conditions: Ca-releasing activity EC50, CHO-GHSR62 cells (CHO cells expressing rat GHS receptor), FLIPR

Compound	EC50 [nM]
CCCCCCCC(=O)OC[C@H](NC(=O)[C@H](CO)NC(=O)CN)C(=O)N[C@@H](Cc1ccccc1)C(=O)N[C@@H](CC(C)C)C(=O)N[C@@H](CO)C(=O)N1CCC[C@H]1C(=O)N[C@@H](CCC(=O)O)C(=O)N[C@@H](Cc1cnc[nH]1)C(=O)N[C@@H](CCC(N)=O)C(=O)N[C@@H](CCCNC(=N)N)C(=O)N[C@H](C(=O)N[C@@H](CCC(N)=O)C(=O)N[C@@H](CCC(N)=O)C(=O)N[C@@H](CCCNC(=N)N)C(=O)N[C@@H](CCCCN)C(=O)N[C@@H](CCC(=O)O)C(=O)N[C@@H](CO)C(=O)N[C@@H](CCCCN)C(=O)N[C@@H](CCCCN)C(=O)N1CCC[C@H]1C(=O)N1CCC[C@H]1C(=O)N[C@@H](C)C(=O)N[C@@H](CCCCN)C(=O)N[C@@H](CC(C)C)C(=O)N[C@@H](CCC(N)=O)C(=O)N1CCC[C@H]1C(=O)N[C@@H](CCCNC(=N)N)C(=O)O)C(C)C [Compound 1, human Ghrelin]	1.3

Same assay, conditions: Table 3, Example 9: protease fragments or synthetic peptides; CHO-GHSR62 cells; read-out: Ca-releasing activity (EC50)

Compound	EC50 [nM]
CCCCCCCC(=O)OC[C@H](NC(=O)[C@H](CO)NC(=O)CN)C(=O)N[C@@H](Cc1ccccc1)C(=O)N[C@@H](CC(C)C)C(=O)N[C@@H](CO)C(=O)N1CCC[C@H]1C(=O)N[C@@H](CCC(=O)O)C(=O)N[C@@H](Cc1c[nH]cn1)C(=O)N[C@@H](CCC(N)=O)C(=O)O [Compound 25, Ghrelin (1-10)]	19
CCCCCCCC(=O)OC[C@H](NC(=O)[C@H](CO)NC(=O)CN)C(=O)N[C@@H](Cc1ccccc1)C(=O)N[C@@H](CC(C)C)C(=O)N[C@@H](CO)C(=O)N1CCC[C@H]1C(=O)N[C@@H](CCC(=O)O)C(=O)N[C@@H](Cc1c[nH]cn1)C(=O)N[C@@H](CCC(N)=O)C(=O)N[C@@H](CCCNC(=N)N)C(=O)O [Compound 23, hGhrelin (1-11)]	15
